In ChEMBL document CHEMBL1201862, “PubChem BioAssay data set” (2004):
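Each compound was tested at five concentrations against cells in 96-well plates for 48 hours. GI50 is the concentration that inhibits growth by half.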 Activity calls are given as the source filed them. Rule as the data show it: active = GI50 up to about 1.1 µM and inactive = higher.

Legend:
Assay in all cases: NCI tumour cell line growth inhibition, 48 h
[1] = system: M14
[2] = system: A549
[3] = system: T47D
[4] = system: PC-3
[5] = system: Hs-578T
[6] = system: OVCAR-4
[7] = system: 786-0
[8] = system: HOP-92
[9] = system: SK-MEL-2
[10] = system: SW-620
[11] = system: MDA-MB-231
[12] = system: SN12C
[13] = system: SK-OV-3
[14] = system: EKVX
[15] = system: NCI/ADR-RES
[16] = system: HCT-15
[17] = system: SNB-75
[18] = system: LOX IMVI
[19] = system: NCI-H522
[20] = system: NCI-H460
[21] = system: OVCAR-3
[22] = system: DU-145
[23] = system: SF-268
[24] = system: UACC-257
[25] = system: HOP-62
[26] = system: OVCAR-8
[27] = system: COLO 205
[28] = system: Malme-3M
[29] = system: ACHN
[30] = system: HT-29
[31] = system: HCT-116
[32] = system: UACC-62
[33] = system: SK-MEL-5
[34] = system: SR
[35] = system: MDA-N
[36] = system: MOLT-4
[37] = system: IGROV-1
[38] = system: SF-295
[39] = system: NCI-H226
[40] = system: OVCAR-5
[41] = system: RPMI-8226
[42] = system: UO-31
[43] = system: SK-MEL-28
[44] = system: NCI-H23
[45] = system: TK-10
[46] = system: KM12
[47] = system: HCC 2998
[48] = system: MCF7
[49] = system: MDA-MB-435
[50] = system: RXF 393
[51] = system: U-251
[52] = system: SF-539
[53] = system: CAKI-1
[54] = system: A498
[55] = system: SNB-19
[56] = system: K562
[57] = system: HL-60
[58] = system: CCRF-CEM

CN(Cc1cnc2nc(N)nc(N)c2n1)c1ccc(C(=O)NC(CCC(=O)NCC(P(=O)(O)O)P(=O)(O)O)C(=O)O)cc1 (centres undefined)
GI50 [1]: 6.01 µM (inactive)
GI50 [2]: 4.99 µM (inactive)
GI50 [3]: 40 µM (inactive)
GI50 [4]: 0.436 µM (active)
GI50 [5]: 37.1 µM (inactive)
GI50 [6]: 1.64 µM (inactive)
GI50 [7]: 81.1 µM (inactive)
GI50 [8]: < 0.01 µM (active)
GI50 [9]: > 100 µM (inactive)
GI50 [10]: 4.7 µM (inactive)
GI50 [11]: > 100 µM (inactive)
GI50 [12]: 7.21 µM (inactive)
GI50 [13]: 15.7 µM (inactive)
GI50 [14]: > 100 µM (inactive)
GI50 [15]: 35.5 µM (inactive)
GI50 [16]: 5.94 µM
GI50 [17]: 57.3 µM (inactive)
GI50 [18]: 2.52 µM (inactive)
GI50 [19]: 20.2 µM (inactive)
GI50 [20]: 4.4 µM (inactive)
GI50 [21]: 23 µM (inactive)
GI50 [22]: 7.16 µM (inactive)
GI50 [23]: 6.11 µM (inactive)
GI50 [24]: 12.6 µM (inactive)
GI50 [25]: 5.11 µM (inactive)
GI50 [26]: 7.6 µM (inactive)
GI50 [27]: > 100 µM (inactive)
GI50 [28]: > 100 µM (inactive)
GI50 [29]: 3.57 µM (inactive)
GI50 [30]: 5.27 µM (inactive)
GI50 [31]: 0.815 µM (active)
GI50 [32]: 4.41 µM (inactive)
GI50 [33]: 13.3 µM (inactive)
GI50 [34]: < 0.01 µM (active)
GI50 [35]: 4.97 µM (inactive)
GI50 [36]: 3.18 µM (inactive)
GI50 [37]: 9.04 µM (inactive)
GI50 [38]: 0.706 µM (active)

O=C1Nc2ccccc2/C1=N/NC(=S)N1CCCCCC1
GI50 [1]: 0.684 µM (active)
GI50 [2]: 0.643 µM (active)
GI50 [39]: 1.36 µM (inactive)
GI50 [3]: 3.78 µM (inactive)
GI50 [4]: 0.453 µM (active)
GI50 [40]: 2.59 µM (inactive)
GI50 [6]: 1.38 µM (inactive)
GI50 [7]: 0.332 µM (active)
GI50 [8]: 1.82 µM (inactive)
GI50 [41]: 0.824 µM (active)
GI50 [42]: 0.35 µM (active)
GI50 [43]: 1.87 µM (inactive)
GI50 [9]: 1.66 µM (inactive)
GI50 [44]: 1.21 µM (inactive)
GI50 [10]: 0.594 µM (active)
GI50 [11]: 0.56 µM (active)
GI50 [12]: 1.42 µM (inactive)
GI50 [13]: 1.65 µM (inactive)
GI50 [45]: 1.8 µM (inactive)
GI50 [14]: 0.851 µM (active)
GI50 [15]: 0.0769 µM (active)
GI50 [16]: 0.45 µM
GI50 [17]: 1.69 µM (inactive)
GI50 [18]: 0.507 µM (active)
GI50 [19]: 2.47 µM (inactive)
GI50 [20]: 0.09 µM (active)
GI50 [21]: 0.163 µM (active)
GI50 [46]: 0.283 µM (active)
GI50 [22]: 2.2 µM (inactive)
GI50 [47]: 1.52 µM (inactive)
GI50 [48]: 1.96 µM (inactive)
GI50 [23]: 0.322 µM (active)
GI50 [24]: 2.54 µM (inactive)
GI50 [25]: 0.242 µM (active)
GI50 [26]: 0.895 µM (active)
GI50 [27]: 1.03 µM (active)
GI50 [49]: 1.26 µM (inactive)
GI50 [28]: 0.272 µM (active)
GI50 [29]: 0.824 µM (active)
GI50 [30]: 1.3 µM (inactive)
GI50 [31]: 0.312 µM (active)
GI50 [50]: 0.644 µM (active)
GI50 [32]: 0.489 µM (active)
GI50 [33]: 0.0723 µM (active)
GI50 [51]: 1.11 µM (active)
GI50 [52]: 0.168 µM (active)
GI50 [53]: 1.43 µM (inactive)
GI50 [54]: 1.07 µM (active)
GI50 [34]: 0.212 µM (active)
GI50 [35]: 2.8 µM (inactive)
GI50 [36]: 0.366 µM (active)
GI50 [37]: 0.187 µM (active)
GI50 [55]: 1.54 µM (inactive)
GI50 [38]: 1 µM (active)

Cc1nc2c(C)ccc([N+](=O)[O-])c2c(NCCCN(C)C)c1C
GI50 [1]: 19.5 µM (inactive)
GI50 [2]: > 47.1 µM (inactive)
GI50 [39]: 67.1 µM (inactive)
GI50 [3]: > 100 µM (inactive)
GI50 [4]: 11.7 µM (inactive)
GI50 [40]: > 72.1 µM (inactive)
GI50 [5]: 63 µM (inactive)
GI50 [6]: > 100 µM (inactive)
GI50 [56]: 32.3 µM (inactive)
GI50 [7]: > 90.8 µM (inactive)
GI50 [8]: > 100 µM (inactive)
GI50 [41]: 52.6 µM (inactive)
GI50 [42]: > 100 µM (inactive)
GI50 [43]: 27.1 µM (inactive)
GI50 [9]: > 44.6 µM (inactive)
GI50 [44]: > 75.9 µM (inactive)
GI50 [10]: > 38.5 µM (inactive)
GI50 [12]: > 62.8 µM (inactive)
GI50 [13]: > 100 µM (inactive)
GI50 [45]: > 41.6 µM (inactive)
GI50 [14]: > 59.7 µM (inactive)
GI50 [15]: > 100 µM (inactive)
GI50 [16]: > 39.4 µM
GI50 [17]: > 65.3 µM (inactive)
GI50 [57]: 24.9 µM (inactive)
GI50 [18]: 44.3 µM (inactive)
GI50 [19]: 26.9 µM (inactive)
GI50 [58]: 51.6 µM (inactive)
GI50 [20]: 57 µM (inactive)
GI50 [21]: 47.9 µM (inactive)
GI50 [46]: > 100 µM (inactive)
GI50 [22]: > 100 µM (inactive)
GI50 [47]: 27.4 µM (inactive)
GI50 [48]: 46.5 µM (inactive)
GI50 [23]: > 100 µM (inactive)
GI50 [24]: 23.3 µM (inactive)
GI50 [25]: > 43.9 µM (inactive)
GI50 [26]: > 46.6 µM (inactive)
GI50 [27]: 23.9 µM (inactive)
GI50 [49]: 39.2 µM (inactive)
GI50 [28]: 29 µM (inactive)
GI50 [29]: > 100 µM (inactive)
GI50 [30]: 24.7 µM (inactive)
GI50 [31]: 74.6 µM (inactive)
GI50 [50]: 58.7 µM (inactive)
GI50 [32]: 37.2 µM (inactive)
GI50 [33]: 14.2 µM (inactive)
GI50 [51]: > 57.8 µM (inactive)
GI50 [52]: > 76.9 µM (inactive)
GI50 [53]: 66.4 µM (inactive)
GI50 [54]: > 22.3 µM (inactive)
GI50 [34]: 38.3 µM (inactive)
GI50 [35]: 33.1 µM (inactive)
GI50 [36]: 28.3 µM (inactive)
GI50 [37]: > 100 µM (inactive)
GI50 [55]: > 100 µM (inactive)
GI50 [38]: 38.4 µM (inactive)
